Data as given in PMC9597602, “Metal Complexes as Antifungals? From a Crowd-Sourced Compound Library to the First In Vivo Experiments” (JACS Au, 2022).
Read-outs that look alike come from different tables or passages of the source. Blank lines part the entries; values can stand above or below the compound they belong to.

Key:
[1] = tested on: Candida auris CBS12373 KCTC 17810; assay: Antifungal MIC assay, extended panel; type: cell-based; conditions: for MIC: read-out: MIC* Candida auris CBS12373
Outline: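 Yeast was grown for 3 days at 30 °C on YPD agar. Five colonies were suspended to 1 × 10^6 to 5 × 10^6 CFU/mL, checked by OD530, diluted in YNB medium, and dispensed onto compound-loaded 384-well NBS plates at 2.5 × 10^3 CFU/mL in 50 μL. Plates were covered and incubated without shaking at 35 °C for 36 h to determine MIC.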

[2] = tested on: Candida auris CBS10913 JCM 15448; assay: Antifungal MIC assay, extended panel; type: cell-based; conditions: for MIC: Candidozyma auris, comparator antifungals, read-out: MIC* Candida auris CBS10913
Outline: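 Yeast strains were grown on YPD agar at 30 °C for 3 days. Five colonies were suspended to 1 × 10^6 to 5 × 10^6 CFU/mL (by OD530), diluted in YNB medium, and dispensed into compound-containing 384-well NBS plates to 2.5 × 10^3 CFU/mL in 50 μL. Covered plates were held at 35 °C for 36 h without shaking, and MIC was determined by broth dilution.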

[3] = tested on: Candida albicans ATCC 90028 NCCLS11; assay: Antifungal MIC assay; type: cell-based; conditions: for MIC: Candida albicans, ATCC90028, comparator antifungals, read-out: MIC* Candida albicans ATCC 90028
Outline: (§1)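 MIC is the lowest concentration at which growth fell by at least 80% (optically clear to slightly hazy, CLSI M27 score 0–1). Cells in YNB at a final 2.5 × 10^3 CFU/mL were incubated with compound for 36 h at 35 °C, unshaken.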

[4] = tested on: methicillin-resistant Staphylococcus aureus ATCC 43300; assay: CO-ADD antibacterial MIC assay; type: cell-based; conditions: initial CO-ADD dose-response screening; ≥80% growth inhibition
Outline: (§2)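 CAMHB broth microdilution; inoculum 5 × 10^5 CFU/mL from mid-log culture; 37 °C 18 h static; OD600 read-out; MIC at ≥80% inhibition; colistin (Gram-negative) and vancomycin (Gram-positive) internal controls.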

[5] = tested on: Acinetobacter baumannii ATCC 19606 type strain; assay: CO-ADD antibacterial MIC assay; type: cell-based; conditions: initial CO-ADD dose-response screening; ≥80% growth inhibition
Outline: as §2

[6] = tested on: Escherichia coli ATCC 25922 FDA control strain; assay: CO-ADD antibacterial MIC assay; type: cell-based; conditions: initial CO-ADD dose-response screening; ≥80% growth inhibition
Outline: as §2

[7] = tested on: Pseudomonas aeruginosa ATCC 27853 QC control strain; assay: CO-ADD antibacterial MIC assay; type: cell-based; conditions: initial CO-ADD dose-response screening; ≥80% growth inhibition
Outline: as §2

[8] = tested on: Cryptococcus neoformans H99 ATCC 208821 type strain; assay: Antifungal MIC assay; type: cell-based; conditions: for MIC: Cryptococcus neoformans, ATCC208821, comparator antifungals, read-out: MIC* Cryptococcus neoformans ATCC 208821
Outline: as §1

[9] = tested on: Candida glabrata ATCC 90030 NCCLS 84; assay: Antifungal MIC assay, extended panel; type: cell-based; conditions: extended panel; 50% inhibition, MIC score 2
[10] = tested on: human ovarian carcinoma cell line A2780; conditions: cited from earlier work
[11] = tested on: Cryptococcus deuterogattii CBS7750 VGII; Serotype B; assay: Antifungal MIC assay, extended panel; type: cell-based; conditions: extended panel; 50% inhibition, MIC score 2
[12] = tested on: Candida tropicalis ATCC 750; assay: Antifungal MIC assay, extended panel; type: cell-based; conditions: extended panel; 50% inhibition, MIC score 2
[13] = tested on: Cryptococcus deuterogattii ATCC 32609 VGII; assay: Antifungal MIC assay, extended panel; type: cell-based; conditions: extended panel; 50% inhibition, MIC score 2
[14] = tested on: HEK-293 human embryonic kidney cells ATCC CRL-1573
Description: The cells were incubated together with the compounds for 20 h at 37 °C in 5% CO2. […] Tamoxifen (Sigma T5648) was used as internal control on each plate.

[15] = tested on: Candida tropicalis ATCC 750; assay: Antifungal MIC assay, extended panel; type: cell-based; conditions: extended panel, second batch; ≥80 or ≥50% inhibition
Outline: as §1

[16] = tested on: Cryptococcus deuterogattii ATCC 32609 VGII; assay: Antifungal MIC assay, extended panel; type: cell-based; conditions: extended panel, second batch; ≥80 or ≥50% inhibition
[17] = tested on: Candida glabrata ATCC 90030 NCCLS 84; assay: Antifungal MIC assay, extended panel; type: cell-based; conditions: extended panel, second batch; ≥80 or ≥50% inhibition
Outline: as §1

[18] = tested on: Cryptococcus deuterogattii CBS7750 VGII; Serotype B; assay: Antifungal MIC assay, extended panel; type: cell-based; conditions: extended panel, second batch; ≥80 or ≥50% inhibition
Outline: as §1

human red blood cells = type: cell-based
Outline: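 Washed human erythrocytes at 0.5 × 10^8 cells/mL incubated with compound, then centrifuged. Haemolysis read as supernatant OD405, normalised to untreated cells (0%) and 1% Triton X-100 (100%), with melittin as internal plate control.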

C. albicans (ATCC 90028) [19] = assay: Galleria mellonella infection (survival) assay; type: in vivo, Candida albicans in Galleria mellonella larvae; conditions: G. mellonella inoculated with C. albicans, 10 μL compound solution, 5 days, vs untreated control
Description: In an initial survival assay, G. mellonella larvae were inoculated with C. albicans (ATCC 90028). The larvae were then injected with 10 μL of the compound solution, and their survival was monitored for the next 5 days. Fluconazole and 10% DMSO injections were used as controls.
The globally available strains for C. albicans and C. neoformans, namely, ATCC 90028 and H99, respectively, were used to assess the antifungal potential of the panel of cobalt complex compounds in the G. mellonella insect model. Each strain was cultured on Sabouraud dextrose agar (SDA) for 24–48 h at 27 °C prior to inoculation. Yeast colonies were then suspended in a phosphate-buffered saline solution (PBS), and cells’ concentrations were adjusted using a Neubauer counting chamber to 5 × 10^7 cells for ATCC 90028 and 1 × 10^8 cells for H99. Compounds were prepared by dissolving in 100% dimethylsulfoxide (DMSO) to 4 or 10 mM depending on compound solubility before being further diluted with water to 0.4 or 1 mM for injection into larvae.
Each group of larvae was subsequently incubated at 37 °C for 2 h in 90 mm Petri dishes. After incubation, larvae were injected with 10 μL of the compound into the last right pro-leg and returned to Petri dishes to incubate at 37 °C for 5 days. In addition to the panel of metal compounds, fluconazole (FLC) was included as a positive control (1 and 0.4 mM) and reference antifungal. Larvae inoculated with just the fungal strains and the fungal strains with 10% DMSO were also included as comparison groups. Larvae injected concurrently with PBS instead of fungal inoculum and compounds were used as negative controls. All larvae were checked daily for survival.

C. albicans (ATCC 90028) [20] = assay: Galleria mellonella infection (log CFU reduction) assay; type: in vivo, Candida albicans in Galleria mellonella larvae; conditions: 1 mM, 10 μL; Pt1 19 mg/kg, Pt2 28 mg/kg, fluconazole 12 mg/kg; 24 h at 37 °C; vs 10% DMSO control
Description: To quantify the possible protective effect of Pt1 and Pt2 in G. mellonella challenged with C. albicans, we conducted a CFU reduction assay with these compounds. Briefly, G. mellonella larvae were inoculated with C. albicans (ATCC 90028) and incubated for 2 h at 37 °C. The larvae were then injected with 10 μL of the corresponding compound solution (1 mM) or control (same concentration and injection volume) and incubated for 24 h at 37 °C. The larvae were then anesthetized, macerated, and serially diluted onto SDA (Sabouraud dextrose agar) plates. After 48 h of incubation, the CFUs were counted.
A log CFU reduction assay was conducted for two compounds and two control groups. […] Fluconazole (1 mM) and 10% DMSO were used once again as the control groups. Fifteen G. mellonella larvae (200–250 mg) per test group were selected and inoculated with 10 μL of C. albicans at a concentration of 5 × 10^7 cells/mL and incubated on 90 mm Petri dishes in groups of five larvae for 2 h at 37 °C. Larvae were then subsequently injected with 10 μL of the corresponding test compound or control and returned to Petri dishes to incubate for 24 h at 37 °C.
Larvae were then anesthetized on ice for 5 to 10 min before being placed in individual prefilled 2 mL tubes with 3.0 mm diameter zirconium beads with 1000 μL of PBS. They were then macerated briefly using the BeadBug 6 Homogenizer (Benchmark Scientific, USA) in two 45 s intervals at 4350 rpm. After homogenization, serial dilutions of 1:100, 1:1000, and 1:10,000 were then made for each larva/tube, and 100 μL of the dilution was spread plated onto SDA plates with 50 μg/mL chloramphenicol. Plates were then incubated at 27 °C for 48 h before CFUs were counted.
A one-way ANOVA was conducted to compare the CFU counts for Pt1, Pt2, and both controls. After a significant difference was observed between the groups, a subsequent Tukey’s pairwise test was used to compare the individual test groups with each other.

[21] = extended panel, second batch, ≥80 or ≥50% inhibition
[22] = extended panel, 50% inhibition, MIC score 2
[23] = initial CO-ADD dose-response screening, ≥80% growth inhibition
[24] = ≥80% inhibition, converted with MW of Table S12

MIC [1, 21]: 0.78 µM
MIC50 Candida auris CBS12373 [1, 22]: 0.391 to 0.781 µM
MIC Candida auris CBS10913 [2, 21]: 0.781 to 1.56 µM
MIC50 Candida auris CBS10913 [2, 22]: 0.781 to 1.56 µM
MIC Candida albicans ATCC 90028 [3, 21]: 0.39 to 1.56 µM
MIC50 Candida albicans ATCC 90028 [3, 22]: 0.391 to 1.56 µM
MIC Ca [3, 23]: 4 µg/mL
MIC MRSA (Sa) [4]: >32 µg/mL
MIC Ab [5]: >32 µg/mL
MIC Ec [6]: >32 µg/mL
MIC Pa [7]: >32 µg/mL
MIC Cryptococcus neoformans ATCC 208821 [8, 21]: 0.195 to 0.391 µM
MIC50 Cryptococcus neoformans ATCC 208821 [8, 22]: 0.195 to 0.391 µM
MIC Cn [8, 23]: 2 µg/mL
MIC50 Candida glabrata ATCC 90030 [9]: 0.391 to 6.25 µM
MIC50 Cryptococcus deuterogattii CBS7750 [11]: 0.391 µM
MIC50 Candida tropicalis ATCC 750 [12]: 0.391 to 0.781 µM
MIC50 Cryptococcus deuterogattii ATCC 32609 [13]: 0.78 to 1.56 µM
MIC Candida tropicalis ATCC 750 [15]: 0.391 to 0.781 µM
MIC Cryptococcus deuterogattii ATCC 32609 [16]: 0.781 to 1.56 µM
MIC [17]: 6.25 µM
MIC [18]: 0.391 µM
RBC HC10 (human red blood cells; ranges obtained upon retesting, new batch): 0.4 to 3 µM
Structure (SMILES): Cc1c(C)c(C)[c-](C)c1C.Cc1c(C)c(C)[c-](C)c1C.[Cl-].[Cl-].[Cl-].[Cl-].[Rh+3].[Rh+3] [Rh1]
IC50 [10]: 7.3 ± 1.5 µM
HEK CC50 ([14]; initial CO-ADD screening, 20 h): >32 µg/mL
CC50 ([14]; read-out: HEK293 CC50, ranges obtained upon retesting, new batch): > 200 µM
cytotoxicity: none up to stated concentration ([14]; retest): > 200 µM
RBC HC10 (human red blood cells; initial CO-ADD screening, 1 h, 10% hemolysis): >32 µg/mL

Structure (SMILES): OC(Cn1cncn1)(Cn1cncn1)c1ccc(F)cc1F [Fluconazole, reference compound]
MIC ([1]; Candidozyma auris, comparator antifungals, MIC = ≥80% inhibition): ≤ 0.004 µg/mL
MIC ([1]; Candidozyma auris, comparator antifungals, ≥80% inhibition, converted with MW of Table S12): ≤ 0.018 µM
MIC ([2]; MIC = ≥80% inhibition): ≤ 0.004 µg/mL
MIC [2, 24]: ≤ 0.018 µM
MIC ([3]; MIC = ≥80% inhibition): 0.004 µg/mL
MIC [3, 24]: 0.018 µM
MIC ([8]; MIC = ≥80% inhibition): 2 to 4 µg/mL
MIC [8, 24]: 9.25 to 18.5 µM
larva survival (C. albicans (ATCC 90028) [19]): significant larva survival
reduction in CFUs (C. albicans (ATCC 90028) [20]): 1.1 log10
